Data on five molecules can be found in the NIST ThermoML archive (doi:10.1016/j.jct.2013.02.020).

Structures are written as SMILES. Numbers after ± are expanded uncertainties.

The first data set can be described thus: refractive index (Na D-line) (dimensionless). Conditions: 298.15 K; 100 kPa; Liquid; Standard Abbe refractometry.
As usually defined, the refractive index is the speed of light in vacuum divided by its phase velocity in the sample. Turning to `c1ccsc1` [thiophene], the refractive index is listed as 1.5271 ± 0.0006.

`c1ccncc1` [pyridine]: the refractive index was determined as 1.5072 ± 0.0006.

As to `CCn1cc[n+](C)c1.CS(=O)(=O)[O-]` [1-ethyl-3-methylimidazolium methanesulfonate], the refractive index is reported as 1.4962 ± 0.0005.

As to `CCOS(=O)(=O)[O-].CCn1cc[n+](C)c1` [1-ethyl-3-methylimidazolium ethyl sulfate], the refractive index is on record as 1.4771 ± 0.0005.

With `CC(=O)[O-].CCn1cc[n+](C)c1` [1-ethyl-3-methylimidazolium acetate], the refractive index stood at 1.5012 ± 0.0005.

Assay in a further data set: not given
Conditions: 298.15 K, Wilhelmy plate method.
The surface tension liquid-gas is the work needed to enlarge the surface of a liquid by unit area. As for `c1ccsc1` [thiophene], the surface tension liquid-gas is 31.7 ± 0.3 mN/m.

As to `c1ccncc1` [pyridine], the surface tension liquid-gas is recorded as 37.5 ± 0.4 mN/m.

Turning to `CCn1cc[n+](C)c1.CS(=O)(=O)[O-]` [1-ethyl-3-methylimidazolium methanesulfonate], the surface tension liquid-gas worked out at 51.2 ± 0.3 mN/m.

With `CCOS(=O)(=O)[O-].CCn1cc[n+](C)c1` [1-ethyl-3-methylimidazolium ethyl sulfate], the surface tension liquid-gas is listed as 48.4 ± 0.2 mN/m.

On to `CC(=O)[O-].CCn1cc[n+](C)c1` [1-ethyl-3-methylimidazolium acetate], for which the surface tension liquid-gas is listed as 43.5 ± 0.2 mN/m.

Still in this data set, the particulars now being: 298.15 K; 100 kPa; Liquid; Vibrating tube method.
Broadly, the mass density is the mass of a sample divided by its volume. On to `c1ccsc1` [thiophene], for which the mass density was found to be 1058.44 ± 2.4 kg/m3.

As to `c1ccncc1` [pyridine], the mass density is 978.25 ± 2.3 kg/m3.

Take `CCn1cc[n+](C)c1.CS(=O)(=O)[O-]` [1-ethyl-3-methylimidazolium methanesulfonate]: the mass density is recorded as 1242.52 ± 2.2 kg/m3.

In the case of `CCOS(=O)(=O)[O-].CCn1cc[n+](C)c1` [1-ethyl-3-methylimidazolium ethyl sulfate], the mass density was 1234.53 ± 2.2 kg/m3.

On to `CC(=O)[O-].CCn1cc[n+](C)c1` [1-ethyl-3-methylimidazolium acetate], for which the mass density is given as 1097.37 ± 2.2 kg/m3.
